Each molecule was assayed against USP14 (Homo sapiens (Human), UniProt P54578) (assay: USP14 Inhibition Assay). Conditions: average value from a minimum of two experimental determinations, read-out: IC50 Category.
Assay type: biochemical
Procedure: Example 17: USP14 Inhibition Assay
“I” in the Table below designates an IC50 of >5 μM, “II” in the Table below designates and IC50 between 0.5 and 5 μM, and “III” designates an IC50<0.5 μM. The IC50 values in the Table below represent the average value from a minimum of two experimental determinations.

USP14, sequence (P54578 whole entry, looked up): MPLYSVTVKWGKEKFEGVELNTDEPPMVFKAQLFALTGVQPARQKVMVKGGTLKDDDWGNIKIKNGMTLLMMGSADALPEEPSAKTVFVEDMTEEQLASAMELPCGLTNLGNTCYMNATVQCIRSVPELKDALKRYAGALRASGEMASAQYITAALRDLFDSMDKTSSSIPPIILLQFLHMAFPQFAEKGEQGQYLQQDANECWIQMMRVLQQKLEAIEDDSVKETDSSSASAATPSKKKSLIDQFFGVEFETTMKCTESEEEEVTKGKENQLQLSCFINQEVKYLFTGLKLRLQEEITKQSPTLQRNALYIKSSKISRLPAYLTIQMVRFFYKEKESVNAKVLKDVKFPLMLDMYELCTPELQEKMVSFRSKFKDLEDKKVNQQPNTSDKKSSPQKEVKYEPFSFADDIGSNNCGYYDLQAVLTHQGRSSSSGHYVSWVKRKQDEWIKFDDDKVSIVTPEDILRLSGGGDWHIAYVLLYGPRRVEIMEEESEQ

Compared with “4-(2-Methyl-3-(2-(piperidin-1-yl)acetyl)-1H-indol-1-yl)benzonitrile [Compound 160]”, O=C(CN1CCC(O)CC1)c1cn(-c2ccc(Cl)cc2)c2ccccc12 [Compound 30] is higher in IC50: under 500 nM for the first, over 5000 nM for the second.

O=C(CN1CCCCC1)c1cn(-c2ccc(Cl)cc2)c2ccccc12 [Compound 31] and O=C(CN1CCCC1)c1cn(-c2ccc(Cl)cc2)c2ccccc12 [Compound 34] cannot be ordered by IC50: over 5000 nM for the first, over 5000 nM for the second.

Cc1c(C(=O)CN2CCC(O)CC2)c2ccccc2n1-c1ccc(Cl)cc1 [Compound 86] and Cc1c(C(=O)CN2CCCCC2)c2ccccc2n1-c1ccc(Cl)cc1 [Compound 87] cannot be ordered by IC50: under 500 nM for the first, under 500 nM for the second.

Cc1c(C(=O)CN2CCCC2)c2ccccc2n1-c1ccc(Cl)cc1 [Compound 88] and Cc1c(C(=O)CN2CCCCC2)c2cc(F)ccc2n1-c1ccc(Cl)cc1 [Compound 98] cannot be ordered by IC50: under 500 nM for the first, under 500 nM for the second.

Cc1c(C(O)CN2CCCCC2)c2ccccc2n1-c1ccc(Cl)cc1 (centres unmarked) [Compound 106, 1-(1-(4-Chlorophenyl)-2-methyl-1H-indol-3-yl)-2-(piperidin-1-yl)ethan-1-ol] and Cc1c(C(=O)CN2CCCCC2)c2ccccc2n1-c1ccc(C(N)=O)cc1 [Compound 108] cannot be ordered by IC50: over 5000 nM for the first, over 5000 nM for the second.

O=C(CN1CCCCC1)c1cn(-c2ccc(Cl)cc2)c2cc(CO)ccc12 [Compound 115, 1-(1-(4-Chlorophenyl)-6-(hydroxymethyl)-1H-indol-3-yl)-2-(piperidin-1-yl)ethan-1-one] and Cc1c(C(=O)CC2CCCCC2)c2ncccc2n1-c1ccc(C#N)cc1 [Compound 116] cannot be ordered by IC50: over 5000 nM for the first, over 5000 nM for the second.

CC(=O)OCc1ccc2c(C(=O)CN3CCCCC3)cn(-c3ccc(Cl)cc3)c2c1 [Compound 118, (1-(4-Chlorophenyl)-3-(2-(piperidin-1-yl)acetyl)-1H-indol-6-yl)methyl Acetate] and CNCc1ccc2c(C(=O)CN3CCCCC3)cn(-c3ccc(Cl)cc3)c2c1 [Compound 119, 1-(1-(4-Chlorophenyl)-6-((methylamino)methyl)-1H-indol-3-yl)-2-(piperidin-1-yl)ethan-1-one] cannot be ordered by IC50: over 5000 nM for the first, over 5000 nM for the second.

O=C(CN1CCCCC1)c1cn(-c2ccc(Cl)cc2)c2cc(O)ccc12 [Compound 120] and COC(=O)c1ccc2c(C(O)CN3CCCCC3)c(C)n(-c3ccc(Cl)cc3)c2c1 (centres unmarked) [Compound 126, Methyl 1-(4-Chlorophenyl)-3-(1-hydroxy-2-(piperidin-1-yl)ethyl)-2-methyl-1H-indole-6-carboxylate] cannot be ordered by IC50: over 5000 nM for the first, over 5000 nM for the second.

Cc1c(C(=O)CN2CCCCC2)c2nc(O)ccc2n1-c1ccc(C#N)cc1 [Compound 127, 4-(5-Hydroxy-2-methyl-3-(2-(piperidin-1-yl)acetyl)-1H-pyrrolo[3,2-b]pyridin-1-yl)benzonitrile] and Cc1[nH]c2cccnc2c1C(=O)CN1CCCCC1 [Compound 128, 1-(2-Methyl-1H-pyrrolo[3,2-b]pyridin-3-yl)-2-(piperidin-1-yl)ethan-1-one] cannot be ordered by IC50: over 5000 nM for the first, over 5000 nM for the second.

Cc1c(C(O)CN2CCCCC2)c2ccc(CO)cc2n1-c1ccc(Cl)cc1 (centres unmarked) [Compound 130, 1-(1-(4-Chlorophenyl)-6-(hydroxymethyl)-2-methyl-1H-indol-3-yl)-2-(piperidin-1-yl)ethan-1-ol] and O=C(CN1CCCCC1)c1c(O)n(-c2ccc(Cl)cc2)c2ccccc12 [Compound 131, 1-(1-(4-Chlorophenyl)-2-hydroxy-1H-indol-3-yl)-2-(piperidin-1-yl)ethan-1-one] cannot be ordered by IC50: over 5000 nM for the first, over 5000 nM for the second.

Compared with COc1c(C(=O)CN2CCCCC2)c2ccccc2n1-c1ccc(Cl)cc1 [Compound 132, 1-(1-(4-Chlorophenyl)-2-methoxy-1H-indol-3-yl)-2-(piperidin-1-yl)ethan-1-one], CCOC(=O)CCc1ccc2c(C(=O)CN3CCCCC3)c(C)n(-c3ccc(C#N)cc3)c2c1 [Compound 133, Ethyl 3-(1-(4-Cyanophenyl)-2-methyl-3-(2-(piperidin-1-yl)acetyl)-1H-indol-6-yl)propanoate] is lower in IC50: over 5000 nM for the first, under 500 nM for the second. The second is the more potent here.

Cc1c(C(=O)CN2CCCCC2)c2cccnc2n1-c1ccc(C#N)cc1 [Compound 141, 4-(2-Methyl-3-(2-(piperidin-1-yl)acetyl)-1H-pyrrolo[2,3-b]pyridin-1-yl)benzonitrile] and Cc1c(C(=O)CN2CCC(NC(=O)OC(C)(C)C)CC2)c2ccccc2n1-c1ccc(Cl)cc1 [Compound 142] fall in the same range of IC50: 500 to 5000 nM for the first, 500 to 5000 nM for the second.

Cc1c(C(=O)CN2CCCCC2)c2ccncc2n1-c1ccc(C#N)cc1 [Compound 144, 4-(2-Methyl-3-(2-(piperidin-1-yl)acetyl)-1H-pyrrolo[2,3-c]pyridin-1-yl)benzonitrile] and Cc1c(C(=O)CN2CCCCC2)c2cc(Oc3ccccc3)ccc2n1-c1ccc(Cl)cc1 [Compound 145] fall in the same range of IC50: 500 to 5000 nM for the first, 500 to 5000 nM for the second.

COc1cccc2c(C(=O)CN3CCCCC3)c(C)n(-c3ccc(C#N)cc3)c12 [Compound 146] and Cc1c(C(=O)CN2CCC(NC(=O)c3ccc(N=[N+]=[N-])cc3)CC2)c2ccccc2n1-c1ccc(Cl)cc1 [Compound 147] fall in the same range of IC50: 500 to 5000 nM for the first, 500 to 5000 nM for the second.

Cc1c(C(=O)CN2CCCCC2)c2ccc(O)cc2n1-c1ccc(Cl)cc1 [Compound 148, 1-(1-(4-Chlorophenyl)-6-hydroxy-2-methyl-1H-indol-3-yl)-2-(piperidin-1-yl)ethan-1-one] and Cc1c(C(=O)CN2CCCCC2)c2ncccc2n1-c1ccc(Cl)nc1 [Compound 149] fall in the same range of IC50: 500 to 5000 nM for the first, 500 to 5000 nM for the second.

Cc1c(C(=O)CN2CCCCC2)c2cc([N+](=O)[O-])ccc2n1-c1ccc(Cl)cc1 [Compound 150] and Cc1c(C(=O)CN2CCCCC2)c2cnccc2n1-c1ccc(C#N)cc1 [Compound 151, 4-(2-Methyl-3-(2-(piperidin-1-yl)acetyl)-1H-pyrrolo[3,2-c]pyridin-1-yl)benzonitrile] fall in the same range of IC50: 500 to 5000 nM for the first, 500 to 5000 nM for the second.

Cc1c(C(=O)CN2CCCCC2)c2ccc(CN3C(=O)c4ccccc4C3=O)cc2n1-c1ccc(Cl)cc1 [Compound 152, 2-((1-(4-Chlorophenyl)-2-methyl-3-(2-(piperidin-1-yl)acetyl)-1H-indol-6-yl)methyl)isoindoline-1,3-dione] and Cc1c(C(=O)CN2CCCCC2)c2ccc(CO[Si](C)(C)C(C)(C)C)cc2n1-c1ccc(Cl)cc1 [Compound 153, 1-(6-(((tert-Butyldimethylsilyl)oxy)methyl)-1-(4-chlorophenyl)-2-methyl-1H-indol-3-yl)-2-(piperidin-1-yl)ethan-1-one] fall in the same range of IC50: 500 to 5000 nM for the first, 500 to 5000 nM for the second.

COc1ccc2c(c1)c(C(=O)CN1CCCCC1)c(C)n2-c1ccc(Cl)cc1 [Compound 155] and Cc1ccc2c(c1)c(C(=O)CN1CCCCC1)c(C)n2-c1ccc(Cl)cc1 [Compound 156] cannot be ordered by IC50: under 500 nM for the first, under 500 nM for the second.

Cc1c(C(=O)CN2CCCCC2)c2ncccc2n1-c1ccc(Cl)cc1 [Compound 161] and Cc1c(C(=O)CN2CCCCC2)c2ncccc2n1-c1ccc(C#N)cc1 [Compound 162, 4-(2-Methyl-3-(2-(piperidin-1-yl)acetyl)-1H-pyrrolo[3,2-b]pyridin-1-yl)benzonitrile] cannot be ordered by IC50: under 500 nM for the first, under 500 nM for the second.

Cc1c(C(=O)CN2CCCCC2)c2cc(C#N)ccc2n1-c1ccc(C#N)cc1 [Compound 163] and Cc1c(C(=O)CN2CCCCC2)c2ccccc2n1-c1ccc([N+](=O)[O-])cc1 [Compound 164] cannot be ordered by IC50: under 500 nM for the first, under 500 nM for the second.

Cc1c(C(=O)CN2CCCCC2)c2nc(F)ccc2n1-c1ccc(C#N)cc1 [Compound 165] and COc1cccc2c1c(C(=O)CN1CCCCC1)c(C)n2-c1ccc(C#N)cc1 [Compound 167] cannot be ordered by IC50: under 500 nM for the first, under 500 nM for the second.

Cc1c(C(=O)CN2CCCCC2)c2c(F)cccc2n1-c1ccc(C#N)cc1 [Compound 168] and Cc1ccc2c(C(=O)CN3CCCCC3)c(C)n(-c3ccc(C#N)cc3)c2c1 [Compound 169, 4-(2,6-Dimethyl-3-(2-(piperidin-1-yl)acetyl)-1H-indol-1-yl)benzonitrile] cannot be ordered by IC50: under 500 nM for the first, under 500 nM for the second.

Cc1c(C(=O)CN2CCCCC2)c2cccc(F)c2n1-c1ccc(C#N)cc1 [Compound 170] and COC(=O)c1ccc2c(C(=O)CN3CCCCC3)c(C)n(-c3ccc(Cl)cc3)c2c1 [Compound 171] cannot be ordered by IC50: under 500 nM for the first, under 500 nM for the second.

CC(=O)Oc1ccc2c(C(=O)CN3CCCCC3)c(C)n(-c3ccc(Cl)cc3)c2c1 [Compound 172, 1-(4-Chlorophenyl)-2-methyl-3-(2-(piperidin-1-yl)acetyl)-1H-indol-6-yl Acetate] and Cc1c(C(=O)CN2CCCCC2)c2nc(F)ccc2n1-c1ccc(Cl)cc1 [Compound 173] cannot be ordered by IC50: under 500 nM for the first, under 500 nM for the second.

Cc1c(C(=O)CN2CCCCC2)c2ccc(C#N)cc2n1-c1ccc(C#N)cc1 [Compound 175] and Cc1c(C(=O)CN2CCCCC2)c2ccc(F)cc2n1-c1ccc(C#N)cc1 [Compound 176] cannot be ordered by IC50: under 500 nM for the first, under 500 nM for the second.

COc1ccc2c(n1)c(C(=O)CN1CCCCC1)c(C)n2-c1ccc(C#N)cc1 [Compound 177, 4-(5-Methoxy-2-methyl-3-(2-(piperidin-1-yl)acetyl)-1H-pyrrolo[3,2-b]pyridin-1-yl)benzonitrile] and COc1ccc2c(C(=O)CN3CCCCC3)c(C)n(-c3ccc(Cl)cc3)c2c1 [Compound 178] cannot be ordered by IC50: under 500 nM for the first, under 500 nM for the second.

Cc1c(C(=O)CN2CCCCC2)c2ccc(OCC(N)=O)cc2n1-c1ccc(Cl)cc1 [Compound 179, 2-((1-(4-Chlorophenyl)-2-methyl-3-(2-(piperidin-1-yl)acetyl)-1H-indol-6-yl)oxy)acetamide] and Cc1c(C(=O)CN2CCCCC2)c2ccc(C(C)C)cc2n1-c1ccc(C#N)cc1 [Compound 180, 4-(6-Isopropyl-2-methyl-3-(2-(piperidin-1-yl)acetyl)-1H-indol-1-yl)benzonitrile] cannot be ordered by IC50: under 500 nM for the first, under 500 nM for the second.

Cc1c(C(=O)CN2CCCCC2)c2ncccc2n1-c1ccc(C#N)nc1 [Compound 181, 5-(2-Methyl-3-(2-(piperidin-1-yl)acetyl)-1H-pyrrolo[3,2-b]pyridin-1-yl)picolinonitrile] and Cc1c(C(=O)CN2CCCCC2)c2ccc(CO)cc2n1-c1ccc(Cl)cc1 [Compound 182, 1-(1-(4-Chlorophenyl)-6-(hydroxymethyl)-2-methyl-1H-indol-3-yl)-2-(piperidin-1-yl)ethan-1-one] cannot be ordered by IC50: under 500 nM for the first, under 500 nM for the second.

From patent US11242361B2 (Proteostasis Therapeutics, Inc., priority 2013, dated 2022)
